For 73 compounds, Kd results are on record in PubChem BioAssay AID1648 (Sanford-Burnham Center for Chemical Genomics, 2009).

Molecules are shown by their SMILES. Calls of active or inactive are those of the source. How the calls were made is not given here.

This test addresses Serine/threonine-protein kinase mTOR (Homo sapiens) (UniProt P42345). As to the kind of experiment: mTOR FRB domain ligand binding – biophysical, NMR (AID 1648). As to conditions: NMR binding to FRB domain, chemical shift.

Serine/threonine-protein kinase mTOR (Homo sapiens), sequence (P42345 2015-2114): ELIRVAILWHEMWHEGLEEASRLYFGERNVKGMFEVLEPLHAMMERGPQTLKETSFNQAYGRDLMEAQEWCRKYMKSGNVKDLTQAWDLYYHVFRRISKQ

By Kd is commonly meant the concentration at which binding is half-saturated. As for `O=C(Nc1ccc2c(c1)OCO2)c1cnn2cccnc12`, the Kd is > 4 mM (inactive). Regarding `CCOC(=O)CSCC(=O)Nc1nccs1`, the Kd is > 4 mM (inactive). In the case of `Cc1ccc(C(=O)N2CC(=O)NC(=O)C2)cc1` it was > 4 mM (inactive); in that of `O=c1n(-c2cccc(Cl)c2)c(=O)n2n1CCC2`, > 4 mM (inactive). The result for `Nc1cccc2nsnc12` reads > 4 mM (inactive); that for `Cc1noc(C)c1C(=O)Nc1cccnc1`, > 4 mM (inactive). The result for `O=C(Nc1nnc(-c2ccco2)o1)C1=COCCO1` reads > 4 mM (inactive). On to `O=C(/C=C1\SC(=O)NC1=O)NCc1ccccc1`, for which the Kd is > 4 mM (inactive). With `O=C1CSC(c2ccc3c(c2)OCO3)N1` (stereo not drawn), the Kd is > 4 mM (inactive). The result for `Cc1nn2c(nc1=O)SCC2(O)c1ccccc1` (stereo not drawn) reads > 4 mM (inactive); that for `NCc1ccc(-n2cccc2)cc1`, > 4 mM (inactive).

For `Cc1nc2sc3c(c2c(=N)n1N)CC(C)(C)OC3`, the Kd is > 4 mM (inactive).

`C(=C\c1ccccc1)/C=N/n1cnnc1`: the Kd was > 4 mM (inactive). The result for `O=CN1CCN(C(=O)c2ccco2)CC1` reads > 4 mM (inactive); that for `NC(CSCSCC(N)C(=O)O)C(=O)O` (stereo not drawn), > 4 mM (inactive); that for `O=C1CCC(=O)N1c1cccc([N+](=O)[O-])c1`, > 4 mM (inactive). In the case of `COc1cc(C(=O)NCC2CCCO2)cc(OC)c1OC` (stereo not drawn) it was > 4 mM (inactive).

As to `Cc1sc2nc(C)n(NC(N)=O)c(=O)c2c1C`, the Kd was > 4 mM (inactive). Take `CN1CCN(C2CCSC2)CC1` (stereo not drawn): the Kd is > 4 mM (inactive). With `Cc1ccc(C(=O)Nn2cnnc2)c(Cl)c1`, the Kd is > 4 mM (inactive). In the case of `CSc1nc(C)cc(-n2ccc(=O)[nH]c2=O)n1` it was > 4 mM (inactive); in that of `Cc1cn(C(=O)CN2C(=O)c3ccccc3C2=O)c(C)n1`, > 4 mM (inactive); in that of `c1ccc(-c2noc(-c3cccnc3)n2)nc1`, > 4 mM (inactive). The result for `NC(=O)CS(=O)(=O)c1ccc(Cl)cc1` reads > 4 mM (inactive); that for `C(=Nn1cnnc1)c1ccccc1`, > 4 mM (inactive). In the case of `CC(=O)C1CC[C@H]2C3CC[C@H]4C[C@H](O)CC[C@]4(C)C3CC[C@]12C` (stereo partly drawn) it was > 4 mM (inactive). As to `CCCCCC(=O)Cc1cc(O)cc(O)c1C(=O)Oc1cc(CC(=O)CCCCC)c(C(=O)O)c(OC)c1`, the Kd is > 4 mM (inactive).

Regarding `S=C(c1ccc(N2CCOCC2)cc1)N1CCCCC1`, the Kd was > 4 mM (inactive). In the case of `CCOc1ccc(Cl)cc1S(=O)(=O)N1CCCC1`, the Kd is > 4 mM (inactive).

On to `O=C1CCC(=O)N1c1ccc(F)cc1`, for which the Kd was > 4 mM (inactive). The result for `O=C(Nc1ccccc1F)c1ccncc1` reads > 4 mM (inactive); that for `CN1CCCn2c1nc1c2c(=O)[nH]c(=O)n1C`, > 4 mM (inactive). For the compound `Cc1c(F)cccc1NS(=O)(=O)c1ccccc1C#N`, the Kd is > 4 mM (inactive). The result for `CC(C)/C(O)=C1/C(=O)O[C@@H](c2ccoc2)[C@]2(C)C(O)[C@@H](O)[C@@]34OC5(C)OC67CC(C)(C(O)[C@]6(O)[C@@H](O)[C@]3(O5)C12)[C@H](CC(=O)O)[C@]74C` (stereo partly drawn) reads > 4 mM (inactive); that for `O=C1CSC2=NCCCN12`, > 4 mM (inactive); that for `CC(=O)Nc1cccc(N(C)S(C)(=O)=O)c1`, > 4 mM (inactive). In the case of `Cc1noc(C)c1C(=O)N1CCc2ccccc21` it was > 4 mM (inactive). The result for `COc1ccccc1NC(=O)c1snnc1C` reads > 4 mM (inactive); that for `Cc1cc(C(=O)NCc2cccnc2)cs1`, > 4 mM (inactive); that for `Cc1nnc(N2CCN(Cc3ccccc3)CC2)[nH]c1=O`, > 4 mM (inactive).

Turning to `COc1ccc2c(c1)OC/C(=C/c1ccc(OC)c(OC)c1)C2=O`, the Kd is > 4 mM (inactive).

Regarding `CN(C)c1ccc(/C=C2/NC(=S)NC2=O)cc1`, the Kd is > 4 mM (inactive). In the case of `O=S(=O)(NCc1ccco1)c1cccc2cccnc12` it was > 4 mM (inactive). The result for `CCn1nnnc1Oc1ccc(Cl)cc1` reads > 4 mM (inactive); that for `O=C(c1ccncc1)c1ccc(Br)cc1`, > 4 mM (inactive); that for `COc1ccc(C(=O)NNC(=S)NC(C)=O)cc1`, > 4 mM (inactive).

Consider `COCCn1c(N)nc2c1c(=O)[nH]c(=O)n2C`, for which the Kd was > 4 mM (inactive). With `COC1C(O)C(O[C@H]2CC[C@]3(C=O)C4C(CC[C@]3(O)C2)[C@@]2(O)CC[C@H](C3=CC(=O)OC3)[C@@]2(C)C[C@H]4OC(C)=O)OC(C)C1OC(C)=O` (stereo partly drawn), the Kd was > 4 mM (inactive). In the case of `COc1ccc2[nH]cc(CCN(C)C)c2c1` it was > 4 mM (inactive); in that of `CC(=O)O[C@H]1C[C@@H](OC(C)=O)C(C)(C)C2C[C@@H](OC(C)=O)[C@]3(C)C([C@H](OC(C)=O)C[C@@]4(C)[C@H](c5ccoc5)OC(=O)[C@H]5O[C@]543)[C@]21C` (stereo partly drawn), > 4 mM (inactive); in that of `CC1=C(C(N)=O)C(c2cccs2)C(C(N)=O)=C(C)N1`, > 4 mM (inactive). In the case of `CCOC(=O)c1c(C)nc2ncccn12` it was > 4 mM (inactive).

As for `Cc1nc2ccc(C(=O)O)cc2[nH]1`, the Kd was > 4 mM (inactive).

With `Cc1n[nH]c(C)c1NC(=O)c1cccc(F)c1`, the Kd is > 4 mM (inactive).

In the case of `Cc1ccc(C(=O)Nc2c[nH]c(=O)[nH]c2=O)cc1`, the Kd was > 4 mM (inactive). The result for `CCOC(=O)c1[nH]cnc1C(=O)OC(C)C` reads > 4 mM (inactive); that for `Clc1ccc2c(N3CCNCC3)ccnc2c1`, > 4 mM (inactive); that for `CC1CCN(C(=S)c2ccccc2O)CC1`, > 4 mM (inactive). Regarding `Nc1nc2ccc(N3CCOCC3)cc2s1`, the Kd was > 4 mM (inactive). In the case of `Cc1nc2ccccc2c(=O)n1N1C(=O)CCCC1=O` it was > 4 mM (inactive); in that of `NS(=O)(=O)c1ccc(N=Cc2ccc[nH]2)cc1`, > 4 mM (inactive).

With `O=C(c1ccc(F)cc1)C1CCNCC1`, the Kd is > 4 mM (inactive). In the case of `Cc1n[nH]c(C)c1-c1ccccc1C(=O)O` it was > 4 mM (inactive); in that of `O=C(O)CCc1nc2ccccc2[nH]c1=O`, > 4 mM (inactive).

`CCC[C@@H]1CCCCN1`: the Kd is > 4 mM (inactive). The result for `Cn1nnc2cc(C(=O)NC3=NCCS3)ccc21` reads > 4 mM (inactive); that for `CC1(C)Cc2cccc(C(=O)O)c2O1`, > 4 mM (inactive); that for `NC(=O)CNC(=O)c1ccccc1`, > 4 mM (inactive). The result for `CCn1nnc(NC(=O)c2ccccc2Br)n1` reads > 4 mM (inactive). In the case of `CC(C)CCCC(C)[C@H]1CCC2C3CC[C@@H]4C[C@H](O)CC[C@]4(C)C3CC[C@@]21C` (stereo partly drawn) it was > 4 mM (inactive). Consider `NC(=O)C1CCN(C(=O)c2ccco2)CC1`, for which the Kd is > 4 mM (inactive). With `Cc1cc(N)n(-c2ccccc2)n1`, the Kd was > 4 mM (inactive). The result for `NC(C(=O)O)C(O)C(=O)O` (stereo not drawn) reads > 4 mM (inactive).
